From PubChem BioAssay (NCI)
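Values below derive from 48-hour exposures of cells grown in 96-well plates, with endpoints linearly interpolated between the two concentrations bracketing the appropriate inhibition level. GI50 = concentration required for 50% inhibition of growth. TGI: concentration producing complete growth inhibition.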

How the values were obtained:
Assay in all cases: DTP human tumour cell line panel, 48 h
SK-MEL-5 melanoma = test system: SK-MEL-5 melanoma
HOP-92 NSCLC = test system: HOP-92 NSCLC
RPMI-8226 leukemia = test system: RPMI-8226 leukemia
SF-268 CNS = test system: SF-268 CNS
HCT-15 colon = test system: HCT-15 colon
HT29 colon = test system: HT29 colon
SF-539 CNS = test system: SF-539 CNS
LOX IMVI melanoma = test system: LOX IMVI melanoma
MOLT-4 leukemia = test system: MOLT-4 leukemia
IGROV1 ovarian = test system: IGROV1 ovarian
SK-OV-3 ovarian = test system: SK-OV-3 ovarian
COLO 205 colon = test system: COLO 205 colon
A498 renal = test system: A498 renal
U251 CNS = test system: U251 CNS
MDA-MB-231 breast = test system: MDA-MB-231 breast
ACHN renal = test system: ACHN renal
MDA-MB-435 = test system: MDA-MB-435
HCT-116 colon = test system: HCT-116 colon
M14 melanoma = test system: M14 melanoma
UACC-62 melanoma = test system: UACC-62 melanoma
NCI-H226 lung = test system: NCI-H226 lung
CAKI-1 renal = test system: CAKI-1 renal
NCI-H460 lung = test system: NCI-H460 lung
PC-3 prostate = test system: PC-3 prostate
NCI/ADR-RES ovarian = test system: NCI/ADR-RES ovarian
OVCAR-8 ovarian = test system: OVCAR-8 ovarian
SNB-75 CNS = test system: SNB-75 CNS
OVCAR-3 ovarian = test system: OVCAR-3 ovarian
KM12 colon = test system: KM12 colon
SR leukemia = test system: SR leukemia
TK-10 renal = test system: TK-10 renal
SN12C renal = test system: SN12C renal
RXF 393 renal = test system: RXF 393 renal
UACC-257 melanoma = test system: UACC-257 melanoma
DU-145 prostate = test system: DU-145 prostate
786-0 renal = test system: 786-0 renal
MCF7 breast = test system: MCF7 breast
OVCAR-4 ovarian = test system: OVCAR-4 ovarian
HOP-62 NSCLC = test system: HOP-62 NSCLC
UO-31 renal = test system: UO-31 renal
SW-620 colon = test system: SW-620 colon
HCC-2998 colon = test system: HCC-2998 colon
OVCAR-5 ovarian = test system: OVCAR-5 ovarian
BT-549 breast = test system: BT-549 breast
T-47D breast = test system: T-47D breast
K-562 leukemia = test system: K-562 leukemia
HL-60(TB) leukemia = test system: HL-60(TB) leukemia
MALME-3M melanoma = test system: MALME-3M melanoma
SK-MEL-2 melanoma = test system: SK-MEL-2 melanoma
SK-MEL-28 melanoma = test system: SK-MEL-28 melanoma
A549 NSCLC = test system: A549 NSCLC
CCRF-CEM leukemia = test system: CCRF-CEM leukemia
EKVX NSCLC = test system: EKVX NSCLC
SNB-19 CNS = test system: SNB-19 CNS
NCI-H23 lung = test system: NCI-H23 lung
HS 578T breast = test system: HS 578T breast
SF-295 CNS = test system: SF-295 CNS

Compound: C=C(C=O)[C@@H]1CC[C@]2(CO)CC[C@]3(C)[C@H](CC[C@@H]4[C@@]5(C)CCCNC(C)(C)[C@@H]5CC[C@]43C)[C@@H]12
- GI50 (SK-MEL-5 melanoma): 10.3 µM
- TGI (SK-MEL-5 melanoma): 22.3 µM
- GI50 (HOP-92 NSCLC): 2.12 µM
- TGI (HOP-92 NSCLC): 7.64 µM
- GI50 (RPMI-8226 leukemia): 2.96 µM
- TGI (RPMI-8226 leukemia): 13.9 µM
- GI50 (SF-268 CNS): 16.1 µM
- TGI (SF-268 CNS): 50.8 µM
- GI50 (HCT-15 colon): 1.99 µM
- TGI (HCT-15 colon): 7.4 µM
- GI50 (HT29 colon): 2.31 µM
- TGI (HT29 colon): 5.95 µM
- GI50 (SF-539 CNS): 7.78 µM
- TGI (SF-539 CNS): 20.4 µM
- GI50 (LOX IMVI melanoma): 1.74 µM
- TGI (LOX IMVI melanoma): 3.3 µM
- GI50 (MOLT-4 leukemia): 3.64 µM
- TGI (MOLT-4 leukemia): 16 µM
- GI50 (IGROV1 ovarian): 3.34 µM
- TGI (IGROV1 ovarian): 13.1 µM
- GI50 (SK-OV-3 ovarian): 40 µM
- TGI (SK-OV-3 ovarian): > 100 µM
- GI50 (COLO 205 colon): 12.8 µM
- TGI (COLO 205 colon): 29.4 µM
- GI50 (A498 renal): 0.57 µM
- TGI (A498 renal): 93.6 µM
- GI50 (U251 CNS): 4.43 µM
- TGI (U251 CNS): 17.8 µM
- GI50 (MDA-MB-231 breast): 14 µM
- TGI (MDA-MB-231 breast): 31.5 µM
- GI50 (ACHN renal): 15 µM
- TGI (ACHN renal): 31.2 µM
- GI50 (MDA-MB-435): 4.8 µM
- TGI (MDA-MB-435): 18.2 µM
- GI50 (HCT-116 colon): 1.8 µM
- TGI (HCT-116 colon): 3.57 µM
- GI50 (M14 melanoma): 7.77 µM
- TGI (M14 melanoma): 23.3 µM
- GI50 (UACC-62 melanoma): 13.1 µM
- TGI (UACC-62 melanoma): 27.9 µM
- GI50 (NCI-H226 lung): 5.09 µM
- TGI (NCI-H226 lung): 23.6 µM
- GI50 (CAKI-1 renal): 14.3 µM
- TGI (CAKI-1 renal): 31.8 µM
- GI50 (NCI-H460 lung): 11 µM
- TGI (NCI-H460 lung): 25.9 µM
- GI50 (PC-3 prostate): 2.91 µM
- TGI (PC-3 prostate): 18.8 µM
- GI50 (NCI/ADR-RES ovarian): 4.15 µM
- TGI (NCI/ADR-RES ovarian): 23 µM
- GI50 (OVCAR-8 ovarian): 7.29 µM
- TGI (OVCAR-8 ovarian): 78.8 µM
- GI50 (SNB-75 CNS): 9.07 µM
- TGI (SNB-75 CNS): 61.8 µM
- GI50 (OVCAR-3 ovarian): 3.35 µM
- TGI (OVCAR-3 ovarian): 11.9 µM
- GI50 (KM12 colon): 3.01 µM
- TGI (KM12 colon): 9.33 µM
- GI50 (SR leukemia): 1.75 µM
- TGI (SR leukemia): 3.74 µM
- GI50 (TK-10 renal): 28.5 µM
- TGI (TK-10 renal): 69.9 µM
- GI50 (SN12C renal): 14 µM
- TGI (SN12C renal): 35.2 µM
- GI50 (RXF 393 renal): 3.83 µM
- TGI (RXF 393 renal): 16.3 µM
- GI50 (UACC-257 melanoma): 11.3 µM
- TGI (UACC-257 melanoma): 31.7 µM
- GI50 (DU-145 prostate): 7.13 µM
- TGI (DU-145 prostate): 20.3 µM
- GI50 (786-0 renal): 14.9 µM
- TGI (786-0 renal): 32.3 µM
- GI50 (MCF7 breast): 1.65 µM
- TGI (MCF7 breast): 5.14 µM
- GI50 (OVCAR-4 ovarian): 6.16 µM
- TGI (OVCAR-4 ovarian): 23.2 µM
- GI50 (HOP-62 NSCLC): 14.6 µM
- TGI (HOP-62 NSCLC): 31.3 µM
- GI50 (UO-31 renal): 14.9 µM
- TGI (UO-31 renal): 38.7 µM
- GI50 (SW-620 colon): 2.01 µM
- TGI (SW-620 colon): 5.52 µM
- GI50 (HCC-2998 colon): 1.91 µM
- TGI (HCC-2998 colon): 3.67 µM
- GI50 (OVCAR-5 ovarian): 9.72 µM
- TGI (OVCAR-5 ovarian): 23 µM
- GI50 (BT-549 breast): 8.94 µM
- TGI (BT-549 breast): 22.8 µM
- GI50 (T-47D breast): 2.76 µM
- TGI (T-47D breast): 17.9 µM
- GI50 (K-562 leukemia): 1.93 µM
- TGI (K-562 leukemia): 5.44 µM
- GI50 (HL-60(TB) leukemia): 1.96 µM
- TGI (HL-60(TB) leukemia): 4.36 µM
- GI50 (MALME-3M melanoma): 10.8 µM
- TGI (MALME-3M melanoma): 26.4 µM
- GI50 (SK-MEL-2 melanoma): 12 µM
- TGI (SK-MEL-2 melanoma): 27.2 µM
- GI50 (SK-MEL-28 melanoma): 3.15 µM
- TGI (SK-MEL-28 melanoma): 12.6 µM
- GI50 (A549 NSCLC): 15.5 µM
- TGI (A549 NSCLC): 46 µM
- GI50 (CCRF-CEM leukemia): 2.21 µM
- TGI (CCRF-CEM leukemia): 6.22 µM
- GI50 (EKVX NSCLC): 11.1 µM
- TGI (EKVX NSCLC): 30.8 µM
- GI50 (SNB-19 CNS): 8.56 µM
- TGI (SNB-19 CNS): 21.3 µM
- GI50 (NCI-H23 lung): 6.16 µM
- TGI (NCI-H23 lung): 21.1 µM
- GI50 (HS 578T breast): 9.64 µM
- TGI (HS 578T breast): 50.6 µM
- GI50 (SF-295 CNS): 13.8 µM
- TGI (SF-295 CNS): 27.6 µM
